This is an account of results in US8536354B2, “Steroidal ligands and their use in gene switch modulation” (Intrexon Corporation, priority 2008, dated 2013).

Experiment [1] has as its target BmEcR (GAL4-EcR DEF with VP16-RXR-USP chimera) (Bombyx mori, UniProt P49881). The experiment is described as follows: Two-hybrid gene switch assay, luciferase reporter, BmEcR, mouse NIH3T3 cells. Format: cell-based.
For experiment [2], the system named is NcEcR (GAL4-EcR DEF with VP16-RXR partner). The experiment is described as follows: Two-hybrid gene switch assay, luciferase reporter, NcEcR, mouse NIH3T3 cells. Conditions: FIG. 14A/14B, GAL4-EcR(DEF). A general note: A reporter such as luciferase makes a cellular process visible.
Experiment [3] has as its target wild-type Drosophila melanogaster EcR (DmEcR; GAL4-EcR DEF with VP16-RXR-USP chimera) (Drosophila melanogaster, UniProt P34021). Nature of the experiment: Two-hybrid gene switch assay, luciferase reporter, wild-type DmEcR, mouse NIH3T3 cells. Conditions: EC50, FIG. 14A/14B, GAL4-EcR(DEF) with VP16-RXR-USP chimera. Format: cell-based.
Experiment [4] has as its target T1, wild-type CfEcR (GAL4-CfEcR-DEF with VP16-RXR-USP chimera) (Choristoneura fumiferana, UniProt O77255).
T1 sequence (O77255 219-541): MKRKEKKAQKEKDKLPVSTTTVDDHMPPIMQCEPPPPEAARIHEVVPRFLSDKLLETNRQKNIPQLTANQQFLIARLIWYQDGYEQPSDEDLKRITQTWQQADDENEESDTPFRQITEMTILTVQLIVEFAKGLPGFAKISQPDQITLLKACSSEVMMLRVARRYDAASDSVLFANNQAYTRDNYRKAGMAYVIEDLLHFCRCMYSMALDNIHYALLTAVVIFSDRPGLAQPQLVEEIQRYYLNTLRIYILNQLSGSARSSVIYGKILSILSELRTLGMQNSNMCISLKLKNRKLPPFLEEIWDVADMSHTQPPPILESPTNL
T1 sequence (P28702 1-533 partner): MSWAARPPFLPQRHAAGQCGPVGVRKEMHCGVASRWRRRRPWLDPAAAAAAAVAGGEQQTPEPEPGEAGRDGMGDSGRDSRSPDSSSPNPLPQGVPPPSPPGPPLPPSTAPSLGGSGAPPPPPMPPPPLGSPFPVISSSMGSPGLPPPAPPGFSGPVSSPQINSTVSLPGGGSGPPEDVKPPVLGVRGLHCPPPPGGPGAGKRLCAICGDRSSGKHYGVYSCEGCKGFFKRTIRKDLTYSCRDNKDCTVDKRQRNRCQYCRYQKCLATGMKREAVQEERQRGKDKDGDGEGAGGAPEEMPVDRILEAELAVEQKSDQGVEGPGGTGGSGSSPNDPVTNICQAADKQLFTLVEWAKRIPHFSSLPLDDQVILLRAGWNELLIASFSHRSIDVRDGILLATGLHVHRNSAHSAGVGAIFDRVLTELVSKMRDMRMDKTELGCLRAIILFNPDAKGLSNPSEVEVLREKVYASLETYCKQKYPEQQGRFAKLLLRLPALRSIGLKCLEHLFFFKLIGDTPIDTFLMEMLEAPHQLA
The experiment is described as follows: Two-hybrid gene switch assay, luciferase reporter, wild-type CfEcR, mouse NIH3T3 cells.

Experiment [5] concerns the target T2, AmaEcR (GAL4-EcR DEF with VP16-RXR-USP chimera) (Amblyomma americanum, UniProt O44338).
T2 sequence (O44338 255-570): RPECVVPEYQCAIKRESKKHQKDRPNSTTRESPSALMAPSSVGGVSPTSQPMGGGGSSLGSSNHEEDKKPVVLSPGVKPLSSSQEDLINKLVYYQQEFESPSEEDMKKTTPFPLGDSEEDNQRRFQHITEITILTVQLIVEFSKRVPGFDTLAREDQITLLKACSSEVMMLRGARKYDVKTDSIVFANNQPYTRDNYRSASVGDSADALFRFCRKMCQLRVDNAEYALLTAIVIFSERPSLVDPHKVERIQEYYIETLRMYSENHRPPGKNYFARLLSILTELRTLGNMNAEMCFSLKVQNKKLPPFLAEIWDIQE
T2 sequence (P28702 1-533 partner): T1 sequence (P28702 1-533 partner)
The experiment is described as follows: Two-hybrid gene switch assay, luciferase reporter, AmaEcR, mouse NIH3T3 cells. The note with it: EC50, FIG. 14A/14B, GAL4-EcR(DEF) with VP16-RXR-USP chimera.

The target of experiment [6] is T3, BaEcR (GAL4-EcR DEF with VP16-RXR-USP chimera) (Bemisia tabaci, UniProt A0A6M3RDR8).
T3 sequence (A0A6M3RDR8 115-530): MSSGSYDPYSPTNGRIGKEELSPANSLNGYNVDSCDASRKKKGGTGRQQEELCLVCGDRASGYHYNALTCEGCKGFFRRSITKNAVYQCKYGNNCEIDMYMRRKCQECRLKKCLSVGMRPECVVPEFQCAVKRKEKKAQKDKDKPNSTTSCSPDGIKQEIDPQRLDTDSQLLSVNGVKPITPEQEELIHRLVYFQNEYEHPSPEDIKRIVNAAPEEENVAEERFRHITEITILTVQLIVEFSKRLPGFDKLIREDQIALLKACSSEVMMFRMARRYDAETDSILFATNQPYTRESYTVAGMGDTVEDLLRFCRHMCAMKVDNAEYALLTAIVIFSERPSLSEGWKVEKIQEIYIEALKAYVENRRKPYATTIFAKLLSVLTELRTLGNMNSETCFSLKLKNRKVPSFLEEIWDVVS
T3 sequence (P28702 1-533 partner): T1 sequence (P28702 1-533 partner)
The experiment is described as follows: Two-hybrid gene switch assay, luciferase reporter, BaEcR, mouse NIH3T3 cells. The note with it: EC50, FIG. 14A/14B, GAL4-EcR(DEF) with VP16-RXR-USP chimera.

Experiment [7] has as its target T4, MsEcR (GAL4-EcR DEF with VP16-RXR-USP chimera) (Manduca sexta, UniProt P49883).
T4 sequence (P49883 1-556): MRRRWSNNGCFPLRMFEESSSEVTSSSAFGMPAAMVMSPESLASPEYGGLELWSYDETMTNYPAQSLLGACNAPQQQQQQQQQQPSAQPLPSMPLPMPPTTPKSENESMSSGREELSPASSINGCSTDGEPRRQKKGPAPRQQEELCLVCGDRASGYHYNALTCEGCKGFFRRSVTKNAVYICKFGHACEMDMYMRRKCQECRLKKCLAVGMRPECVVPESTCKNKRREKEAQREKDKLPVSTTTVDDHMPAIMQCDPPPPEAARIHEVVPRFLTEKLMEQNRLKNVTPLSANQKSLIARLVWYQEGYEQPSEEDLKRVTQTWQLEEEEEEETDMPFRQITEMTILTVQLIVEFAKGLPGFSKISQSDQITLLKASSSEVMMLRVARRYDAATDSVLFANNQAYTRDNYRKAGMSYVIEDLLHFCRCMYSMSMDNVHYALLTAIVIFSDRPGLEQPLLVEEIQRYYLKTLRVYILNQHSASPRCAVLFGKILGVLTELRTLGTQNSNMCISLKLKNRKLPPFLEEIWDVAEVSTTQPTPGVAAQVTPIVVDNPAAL
T4 sequence (P28702 1-533 partner): T1 sequence (P28702 1-533 partner)
Nature of the experiment: Two-hybrid gene switch assay, luciferase reporter, MsEcR, mouse NIH3T3 cells. The note with it: EC50, FIG. 13A/13B, GAL4-EcR(DEF) with VP16-RXR-USP chimera.

Setting [8] is: EC50, FIG. 13A/13B, BmEcR, GAL4-EcR(DEF) with VP16-RXR-USP chimera.

Like-named read-outs stand apart in the source and are kept apart here.

Sequence of wild-type Drosophila melanogaster EcR (DmEcR; GAL4-EcR DEF with VP16-RXR-USP chimera) (P34021 with tags, fused parts or gaps limits assumed): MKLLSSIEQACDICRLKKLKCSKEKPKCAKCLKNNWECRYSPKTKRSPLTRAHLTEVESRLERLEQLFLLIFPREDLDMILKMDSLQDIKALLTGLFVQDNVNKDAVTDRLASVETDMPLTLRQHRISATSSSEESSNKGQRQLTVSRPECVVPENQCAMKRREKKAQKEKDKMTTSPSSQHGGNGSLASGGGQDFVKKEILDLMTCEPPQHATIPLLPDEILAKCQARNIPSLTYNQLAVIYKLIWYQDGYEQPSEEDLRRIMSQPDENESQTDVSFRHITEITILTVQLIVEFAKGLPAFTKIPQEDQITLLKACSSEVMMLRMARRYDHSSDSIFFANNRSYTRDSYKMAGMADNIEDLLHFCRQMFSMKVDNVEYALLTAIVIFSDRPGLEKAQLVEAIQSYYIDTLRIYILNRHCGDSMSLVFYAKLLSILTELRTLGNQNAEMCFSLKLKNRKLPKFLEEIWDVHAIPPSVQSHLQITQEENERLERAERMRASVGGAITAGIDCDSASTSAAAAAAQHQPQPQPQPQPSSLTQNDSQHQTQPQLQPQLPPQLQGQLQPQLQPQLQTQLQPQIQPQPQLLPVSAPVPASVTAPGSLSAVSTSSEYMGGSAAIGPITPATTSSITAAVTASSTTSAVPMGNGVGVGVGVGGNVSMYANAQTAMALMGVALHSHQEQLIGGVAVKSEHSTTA
Sequence of BmEcR (GAL4-EcR DEF with VP16-RXR-USP chimera) (P49881 other isoform, or with tags, fused parts or gaps, change not shown): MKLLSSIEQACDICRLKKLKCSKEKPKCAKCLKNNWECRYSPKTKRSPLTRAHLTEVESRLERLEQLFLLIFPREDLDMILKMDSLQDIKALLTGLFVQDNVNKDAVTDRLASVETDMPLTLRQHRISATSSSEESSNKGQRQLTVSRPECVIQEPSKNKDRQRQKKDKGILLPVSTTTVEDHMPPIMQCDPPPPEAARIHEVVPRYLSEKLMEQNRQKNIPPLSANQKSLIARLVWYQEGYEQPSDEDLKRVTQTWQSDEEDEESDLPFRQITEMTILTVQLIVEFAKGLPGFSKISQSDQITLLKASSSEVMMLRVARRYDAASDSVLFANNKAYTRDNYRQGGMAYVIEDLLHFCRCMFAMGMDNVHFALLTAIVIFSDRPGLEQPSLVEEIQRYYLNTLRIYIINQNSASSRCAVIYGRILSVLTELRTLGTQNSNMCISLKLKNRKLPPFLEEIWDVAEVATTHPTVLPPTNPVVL

As to `CC(=O)O[C@H](CCC(C)(C)O)[C@](C)(O)[C@H]1CC[C@@]2(O)C3=CC(=O)[C@@H]4C[C@@H](O)[C@@H](O)C[C@]4(C)[C@H]3CC[C@]12C` [Compound 20-hydroxyecdysone-22-acetate], the EC50 (as a rule, the concentration that produces a half-maximal response) in experiment [1] (read-out: EC50) is above 33 µM; in experiment [2] it was 2.44 µM; in experiment [3], above 33 µM; in experiment [4] it was above 33 µM; in experiment [5], around 2 µM; in experiment [6], around 2 µM. This compound had an EC50 in experiment [7] of around 2 µM.
On to `CC1(C)OC(=O)C=C1CC(O)C(C)(O)C1CCC2(O)C3=CC(=O)C4CC(O)C(O)CC4(C)C3CCC12C` (stereo not shown) [carthamosterone], for which the EC50 was above 33 µM in experiment [1] (read-out: EC50); around 10 µM in experiment [2]; above 33 µM in experiment [3]; above 33 µM in experiment [4]; around 20 µM in experiment [5]; above 33 µM in experiment [6]. The compound also gave an EC50 in experiment [7] above 33 µM.
Turning to `CC(C)(O)CC[C@@H](O)[C@](C)(O)[C@H]1CC[C@@]2(O)C3=CC(=O)[C@@H]4C[C@@H](O)[C@@H](O)C[C@]4(C)[C@H]3[C@H](O)C[C@]12C` [turkesterone], the EC50 is above 33 µM in experiment [1] (setting [8]); 1.35 µM in experiment [2]; around 15 µM in experiment [3]; above 33 µM in experiment [4]; around 10 µM in experiment [5]; around 20 µM in experiment [6]. The EC50 in experiment [7] was around 12 µM.
With `CCC(=O)OC1CC2(C)C(C(C)(O)C(O)CCC(C)(C)O)CCC2(O)C2=CC(=O)C3CC(O)C(O)CC3(C)C21` (stereo not shown) [turkesterone-11 a -propionate], the EC50 in experiment [1] (setting [8]) was above 33 µM; in experiment [2] it was around 10 µM; in experiment [3], above 33 µM; in experiment [4], above 33 µM; in experiment [5] it was around 10 µM; in experiment [6] it was above 33 µM. Further, the EC50 in experiment [7] is above 33 µM.
